Laboratory results taken from ChEMBL document CHEMBL1158359, “A novel and efficient one step synthesis of 2-amino-5-cyano-6-hydroxy-4-aryl pyrimidines and their anti-bacterial activity” (2009).

How the values were obtained:
Format in all cases: functional
Settings in all cases: read-out: IZ
Escherichia coli [1] = test: Antibacterial activity against Escherichia coli at 250 ppm after 1 hr by agar well diffusion method
Escherichia coli [2] = test: Antibacterial activity against Escherichia coli at 500 ppm after 1 hr by agar well diffusion method
Escherichia coli [3] = test: Antibacterial activity against Escherichia coli at 750 ppm after 1 hr by agar well diffusion method
Staphylococcus aureus [4] = test: Antibacterial activity against Staphylococcus aureus at 500 ppm after 1 hr by agar well diffusion method
Staphylococcus aureus [5] = test: Antibacterial activity against Staphylococcus aureus at 750 ppm after 1 hr by agar well diffusion method
Staphylococcus aureus [6] = test: Antibacterial activity against Staphylococcus aureus at 250 ppm after 1 hr by agar well diffusion method
Staphylococcus aureus [7] = test: Antibacterial activity against Staphylococcus aureus at 50 ppm after 1 hr by agar well diffusion method
Staphylococcus aureus [8] = test: Antibacterial activity against Staphylococcus aureus at 100 ppm after 1 hr by agar well diffusion method

For N#Cc1c(O)nc(N)nc1-c1ccccc1[N+](=O)[O-], which zone of inhibition at 250 ppm (Escherichia coli [1]) is on record?
Its zone of inhibition at 250 ppm is 3 mm.

And the zone of inhibition at 500 ppm (Escherichia coli [2])?
The zone of inhibition at 500 ppm was 5 mm.

And the zone of inhibition at 750 ppm (Escherichia coli [3])?
Its zone of inhibition at 750 ppm is 9 mm.

And the zone of inhibition at 500 ppm (Staphylococcus aureus [4])?
Its zone of inhibition at 500 ppm is 12 mm.

And the zone of inhibition at 750 ppm (Staphylococcus aureus [5])?
The zone of inhibition at 750 ppm was 15 mm.

With COc1cc(-c2nc(N)nc(O)c2C#N)cc(OC)c1OC as the molecule, how does the zone of inhibition at 500 ppm (Staphylococcus aureus [4]) read?
The zone of inhibition at 500 ppm was 10 mm.

And the zone of inhibition at 750 ppm (Staphylococcus aureus [5])?
The zone of inhibition at 750 ppm was 13 mm.

How did the zone of inhibition at 500 ppm (Escherichia coli [2]) turn out when N#Cc1c(O)nc(N)nc1-c1ccccc1Cl was run?
The zone of inhibition at 500 ppm was 8 mm.

And the zone of inhibition at 750 ppm (Escherichia coli [3])?
The zone of inhibition at 750 ppm was 10 mm.

And the zone of inhibition at 250 ppm (Staphylococcus aureus [6])?
The zone of inhibition at 250 ppm was 5 mm.

What about the zone of inhibition at 500 ppm (Staphylococcus aureus [4]) of the same molecule?
The zone of inhibition at 500 ppm was 9 mm.

What about the zone of inhibition at 750 ppm (Staphylococcus aureus [5]) of the same molecule?
Its zone of inhibition at 750 ppm is 14 mm.

What does the source list for N#Cc1c(O)nc(N)nc1-c1ccc(O)cc1?
zone of inhibition at 500 ppm (Escherichia coli [2]): 6 mm; zone of inhibition at 750 ppm (Escherichia coli [3]): 10 mm; zone of inhibition at 250 ppm (Staphylococcus aureus [6]): 5 mm; zone of inhibition at 500 ppm (Staphylococcus aureus [4]): 8 mm; zone of inhibition at 750 ppm (Staphylococcus aureus [5]): 11 mm

How did the zone of inhibition at 250 ppm (Escherichia coli [1]) turn out when CN(C)c1ccc(-c2nc(N)nc(O)c2C#N)cc1 was run?
The zone of inhibition at 250 ppm was 4 mm.

What about the zone of inhibition at 500 ppm (Escherichia coli [2]) of the same molecule?
Its zone of inhibition at 500 ppm is 7 mm.

And the zone of inhibition at 750 ppm (Escherichia coli [3])?
Its zone of inhibition at 750 ppm is 11 mm.

What about the zone of inhibition at 250 ppm (Staphylococcus aureus [6]) of the same molecule?
The zone of inhibition at 250 ppm was 7 mm.

What about the zone of inhibition at 500 ppm (Staphylococcus aureus [4]) of the same molecule?
The zone of inhibition at 500 ppm was 9 mm.

And the zone of inhibition at 750 ppm (Staphylococcus aureus [5])?
Its zone of inhibition at 750 ppm is 11 mm.

Which results are given for N#Cc1c(O)nc(N)nc1C/C=C/c1ccccc1?
zone of inhibition at 250 ppm (Escherichia coli [1]): 7 mm; zone of inhibition at 500 ppm (Escherichia coli [2]): 9 mm; zone of inhibition at 750 ppm (Escherichia coli [3]): 12 mm; zone of inhibition at 500 ppm (Staphylococcus aureus [4]): 5 mm; zone of inhibition at 750 ppm (Staphylococcus aureus [5]): 9 mm

Which zone of inhibition at 750 ppm (Staphylococcus aureus [5]) does the source give for COc1ccc(C2NC(=N)NC(=O)C2C#N)cc1 (stereo unspecified) here?
Its zone of inhibition at 750 ppm is 5 mm.

For N#Cc1c(O)nc(N)nc1-c1cccc(Cl)c1, which zone of inhibition at 250 ppm (Escherichia coli [1]) is on record?
The zone of inhibition at 250 ppm was 4 mm.

And the zone of inhibition at 500 ppm (Escherichia coli [2])?
Its zone of inhibition at 500 ppm is 7 mm.

And the zone of inhibition at 750 ppm (Escherichia coli [3])?
The zone of inhibition at 750 ppm was 11 mm.

What about the zone of inhibition at 750 ppm (Staphylococcus aureus [5]) of the same molecule?
Its zone of inhibition at 750 ppm is 5 mm.

Which zone of inhibition at 250 ppm (Staphylococcus aureus [6]) does the source give for N#Cc1c(O)nc(N)nc1-c1cccc([N+](=O)[O-])c1 here?
Its zone of inhibition at 250 ppm is 4 mm.

And the zone of inhibition at 500 ppm (Staphylococcus aureus [4])?
Its zone of inhibition at 500 ppm is 8 mm.

And the zone of inhibition at 750 ppm (Staphylococcus aureus [5])?
Its zone of inhibition at 750 ppm is 14 mm.

For N#Cc1c(O)nc(N)nc1-c1ccccc1, which zone of inhibition at 50 ppm (Staphylococcus aureus [7]) is on record?
The zone of inhibition at 50 ppm was 10 mm.

What about the zone of inhibition at 100 ppm (Staphylococcus aureus [8]) of the same molecule?
The zone of inhibition at 100 ppm was 12 mm.

What about the zone of inhibition at 250 ppm (Staphylococcus aureus [6]) of the same molecule?
Its zone of inhibition at 250 ppm is 15 mm.

What about the zone of inhibition at 500 ppm (Staphylococcus aureus [4]) of the same molecule?
Its zone of inhibition at 500 ppm is 15 mm.

What about the zone of inhibition at 750 ppm (Staphylococcus aureus [5]) of the same molecule?
Its zone of inhibition at 750 ppm is 18 mm.
